These results are taken from ChEMBL document CHEMBL5584342, “The Missing Link(er): A Roadmap to Macrocyclization in Drug Discovery” (J Med Chem, 2024).

The data set is described as follows: Lipophilicity, log D of compound at pH 7.4. Conditions: buffer.

As usually defined, the logD is lipophilicity at a set pH, counting ionised and neutral species. Read a low logD as a more hydrophilic compound. As to `CO[C@H]1/C(F)=C/C[C@H](C)[C@@H](C)S(=O)(=O)NC(=O)c2ccc3c(c2)N(C[C@@H]2CCO[C@H]21)C[C@@]1(CCCc2cc(Cl)ccc21)CO3`, the logD was 3.
